According to article PMC10120551, “Novel Glu-based pyrazolo[3,4-d]pyrimidine analogues: design, synthesis and biological evaluation as DHFR and TS dual inhibitors” (Journal of Enzyme Inhibition and Medicinal Chemistry, 2023):

Assays:
SNB-75 [1] = assay: cells; details: Homo sapiens
RPMI-8226 = details: RPMI-8226, Leukaemia; five-dose 0.01–100 µM
MDA-MB-468 [2] = details: MDA-MB-468, Breast cancer; five-dose 0.01–100 µM
M14 = details: M14, Melanoma; five-dose 0.01–100 µM
SK-MEL-5 = details: SK-MEL-5, Melanoma; five-dose 0.01–100 µM
MDA-MB-468 [3] = assay: cells; details: Homo sapiens
CCRF-CEM = details: Leukaemia, five-dose 0.01–100 µM
SK-OV-3 = assay: cells; details: Homo sapiens
OVCAR-8 = assay: cells; details: Homo sapiens
786-0 = details: 786-0, Renal cancer; five-dose 0.01–100 µM
SNB-75 [4] = details: SNB-75, CNS cancer; five-dose 0.01–100 µM
OVCAR-3 (Ovarian Cancer) = assay: MTT cytotoxicity assay; format: cell-based, human; details: for IC50: OVCAR-3, MTT, 48 h, mean ± SD from triplicates
Experimental: (§1) The MTT assay was carried out according to the procedure cited earlier. Briefly, in a 96-well plate, either cancer or normal cells were seeded (10^6 cells/cm^2; 100 µL/well) and incubated for 12 h at 37 °C and CO2 (5%), then serial dilutions of compound 6i were added and incubated for 48 h using DMSO control (0.5% V/V). MTT (3-(4,5-dimethylthiazoyl)-2,5-diphenyl-tetrazolium bromide; Cat. No. M-5655) 5 mg/mL was then added. After 4 h incubation, the formed MTT formazan crystals were solubilised by 10% Triton X-100 plus 0.1 N HCl in anhydrous isopropanol. The absorbance was read using a Bioline plate reader at λ570–630 nm[25–29]. The selectivity of 6i towards HSF cells was also determined as follows[30]^,[31]: SI=IC50HSF cells/IC50of cancer cells

PC-3 (Prostate cancer) = assay: MTT cytotoxicity assay; format: cell-based, human
Experimental: as §1

MCF-7 (Breast cancer) = assay: MTT cytotoxicity assay; format: cell-based, human
Experimental: as §1

MCF-7 cells = assay: Apoptosis analysis (annexin-V/PI, flow cytometry); format: cell-based, human; details: MCF-7, 10 µM, 24 h; DMSO control 0.29%
Experimental: Figure 5. Flow cytometric analyses: cell cycle distribution analysis using PI staining method in which MCF-7 cells were treated by 6i (10 µM) and DMSO (negative control; NC) for 48 h; (A) 6i, (B) DMSO, (C) cells percentage in different phases (G0-G1, S, G2/M); apoptotic induction using annexin-V-FITC/PI staining method in which cancer cells were treated by 6i (10 µM) and DMSO (negative control; NC) for 24 h; (D) 6i, (E) DMSO, (F) histogram for induction of apoptosis.
Again, MCF-7 cells were treated with 6i (10 µM) to assess its effect on cell apoptosis. As shown in Figure 5(D,E), the fraction of cells in early apoptosis were 26.27% and 0.43%, while in late apoptosis, they were 8.90% and 0.29% for compound 6i and DMSO control, respectively. The obtained results hinted that compound 6i could induce apoptotic pathways. However, the ratio of apoptosis inferred that the anti-proliferative effect of compound 6i was largely dependent on apoptosis.
The MCF-7 cells (10^6 cells/ml) were treated with either 10 µM of 6i or DMSO (NC) for 24 h. After that, the cells were trypsinised, collected, washed, and stained with PE-Annexin-V (BioVision, K101-25) in the presence of PI[67]. The induction of apoptosis was analysed by flow cytometry using BD FACS Calibur[67].

PC-3 = details: PC-3, Prostate cancer; five-dose 0.01–100 µM
OVCAR-5 = assay: cells; details: Homo sapiens
SF-539 = details: SF-539, CNS cancer; five-dose 0.01–100 µM
UACC-62 = assay: cells; details: Homo sapiens
HCT-116 = assay: cells; details: Homo sapiens
A549/ATCC = assay: cells; details: Homo sapiens
SNB-19 = assay: cells; details: Homo sapiens
SN12C = assay: cells; details: Homo sapiens

In the case of `CCOC(=O)CC[C@H](NC(=O)c1ccc(NC(=O)Cn2cnc3c(c(C)nn3-c3ccc(Br)cc3)c2=O)cc1)C(=O)OCC` [Compound 6i], the GI50 (SNB-75 [1]; SNB-75) is reported as 14.9 µM, the CC50 (SNB-75 [1]; SNB-75, read-out: LC50) is reported as greater than 100 µM and the TGI (RPMI-8226) is reported as greater than 100 µM. It also gave a TGI (MDA-MB-468 [2]) of 51.3 µM, a TGI (M14) greater than 100 µM and a TGI (SK-MEL-5) of 43.1 µM. The GI50 (MDA-MB-468 [3]; MDA-MB-468) was 13.5 µM, the CC50 (MDA-MB-468 [3]; MDA-MB-468, read-out: LC50) was greater than 100 µM and the TGI (CCRF-CEM) was greater than 100 µM. For the same molecule, the GI50 (SK-OV-3; SK-OV-3) was 21.8 µM, the CC50 (SK-OV-3; SK-OV-3, read-out: LC50) was greater than 100 µM and the GI50 (OVCAR-8; OVCAR-8) was 8.17 µM. The CC50 (OVCAR-8; OVCAR-8, read-out: LC50) was greater than 100 µM, the TGI (786-0) was greater than 100 µM and the TGI (SNB-75 [4]) was 40.9 µM. The IC50 (OVCAR-3 (Ovarian Cancer); Homo sapiens, OVCAR-3, 48 h) was 11.5 µM, the Selectivity index (OVCAR-3 (Ovarian Cancer); IC50 HSF cells / IC50 OVCAR-3) was 4.21 and the IC50 (OVCAR-3 (Ovarian Cancer)) was 11.5 ± 0.58 µM. The IC50 (PC-3 (Prostate cancer); Homo sapiens, PC-3, MTT, 48 h, mean ± SD from triplicates) was 12.4 ± 0.62 µM, the Selectivity index (PC-3 (Prostate cancer); IC50 HSF cells / IC50 PC-3) was 3.91 and the IC50 (MCF-7 (Breast cancer); Homo sapiens, MCF7, MCF-7, MTT, 48 h, mean ± SD from triplicates) was 4.4 ± 0.26 µM. The Selectivity index (MCF-7 (Breast cancer); IC50 HSF cells / IC50 MCF-7) was 11.02, the “fraction of cells in late apoptosis” value (MCF-7 cells) was 8.90% and the TGI (PC-3) was 19.4 µM. It also gave a GI50 (OVCAR-5; OVCAR-5) of 20.2 µM, a CC50 (OVCAR-5; OVCAR-5, read-out: LC50) greater than 100 µM and a TGI (SF-539) of 33.0 µM. The GI50 (UACC-62; UACC-62) was 13.3 µM, the CC50 (UACC-62; UACC-62, read-out: LC50) was 77.8 µM and the TGI (full NCI 59 cell panel; HL-60(TB), CCRF-CEM, MOLT-4, K-562, SR, RPMI-8226, HCC-2998, HCT-15, HCT-116, KM12, U250, M14, UACC-257, OVCAR-8, SN12C, 786-0, T-47D, BT-549) was “more than 100 µM”. The “Full panel MG-MID” value (full NCI 59 cell panel; mean graph midpoint based on GI50, full NCI 59 cell panel) was 20.45 µM, the GI50 (HCT-116; HCT-116) was 9.85 µM and the CC50 (HCT-116; HCT-116, read-out: LC50) was greater than 100 µM. For the same molecule, the GI50 (A549/ATCC; A549) was 9.81 µM, the CC50 (A549/ATCC; A549, read-out: LC50) was greater than 100 µM and the GI50 (SNB-19; SNB-19) was 12.1 µM. For the same molecule, the CC50 (SNB-19; SNB-19, read-out: LC50) was 61.3 µM, the GI50 (SN12C) was 29.2 µM and the CC50 (SN12C; read-out: LC50) was greater than 100 µM.
